According to patent US20060069132A1, “Azolecarboxamide herbicides” (priority 2004, published 2006):

Key:
velvetleaf [1] = test: Test A pre-/postemergence herbicide test; format: in vivo, Abutilon theophrasti
In short: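 Visual injury rating on a 0–100 scale (0 no effect, 100 complete control) versus untreated controls, about ten days after treatment in greenhouse. Pre: directed soil spray onto seeded sandy loam. Post: spray to runoff on plants 2–10 cm tall at one- to two-leaf stage.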

corn [2] = test: Test B pre-/postemergence herbicide test; format: in vivo, Zea mays; details: for Corn plant response rating (0 to 100 scale): 0 = no effect, 100 = complete control; for Corn plant response rating (0 to 100 scale) / Plant response rating, Corn: preemergence; for Plant response rating, Corn: visual rating 0-100, 0 no effect, 100 complete control; for Corn plant response rating: postemergence, visual rating, scale 0 (no effect) to 100 (complete control)
In short: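 Visual rating, 0 (no effect) to 100 (complete control), versus untreated controls after 13–15 d in greenhouse. Pre- and postemergence applications (postemergence plants 2–18 cm, 1–4 leaves); flooded paddy arm at 2-leaf stage. Compounds in non-phytotoxic solvent plus surfactant.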

ducksalad = test: Test B flooded paddy test; format: in vivo, Heteranthera limosa; details: 1000 g ai/ha, visual rating, scale 0 to 100 (0 no effect, 100 complete control), 13 to 15 days
In short: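 Treated at 2-leaf (paddy) or 1–4-leaf, 2–18 cm (postemergence); greenhouse 13–15 d; visual score vs control, 0 none to 100 complete control; dash = not tested.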

cocklebur = test: Test C pre-/postemergence herbicide test; format: in vivo, Xanthium strumarium; details: for Cocklebur plant response rating: 500 g ai/ha
In short: (§1)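 Pre- and postemergence application, solvent/surfactant formulation; post at 1- to 4-leaf stage (2–18 cm). Greenhouse 12–14 d. Visual rating vs controls, 0 = no effect, 100 = complete control.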

corn [3] = test: Test C pre-/postemergence herbicide test; format: in vivo, Zea mays
In short: as §1

giant foxtail = test: Test C pre-/postemergence herbicide test; format: in vivo, Setaria faberi
In short: as §1

kochia = test: Test C pre-/postemergence herbicide test; format: in vivo, Kochia scoparia
In short: as §1

velvetleaf [4] = test: Test C pre-/postemergence herbicide test; format: in vivo, Abutilon theophrasti
In short: as §1

[5] = Postemergence, 500 g ai/ha, 0 to 100 scale, 0 no effect, 100 complete control
[6] = Postemergence, 2000 g ai/ha, 0 to 100 scale, 0 no effect, 100 complete control
[7] = Preemergence, 2000 g ai/ha, visual rating, 0 to 100 scale (0 no effect, 100 complete control)
[8] = preemergence, 500 g ai/ha, visual injury, 0 to 100 scale (0 no effect, 100 complete control)
[9] = 62 g ai/ha, preemergence, scale 0 to 100
[10] = 125 g ai/ha, scale 0 (no effect) to 100 (complete control), visual, 12 to 14 days, preemergence
[11] = 250 g ai/ha, scale 0-100, preemergence
[12] = Preemergence, scale 0 to 100, 0 no effect, 100 complete control
[13] = Preemergence, 500 g ai/ha, scale 0 to 100, 0 no effect, 100 complete control
[14] = Postemergence, 250 g ai/ha, scale 0 to 100, 0 no effect, 100 complete control
[15] = postemergence, 125 g ai/ha, scale 0 to 100
[16] = postemergence, 62 g ai/ha, scale 0 to 100
[17] = 500 g ai/ha, scale 0 to 100 (0 no effect, 100 complete control), visual, 12 to 14 days, preemergence
[18] = Postemergence, 500 g ai/ha, scale 0 to 100

For CCN(CC)C(=O)c1cccc(NC(=O)c2sc(C(C)(C)C)nc2C)c1 [Compound 199], the “Velvetleaf plant response rating” value (velvetleaf [1]; [5]) was 30, the “Plant response rating, Velvetleaf” value (velvetleaf [1]; [6]) was 35 and the “Velvetleaf plant response rating” value (velvetleaf [1]; [7]) was 90. For the same compound, the “Velvetleaf plant response rating” value (velvetleaf [1]; [8]) was 35, the “Corn plant response rating (0 to 100 scale)” value (corn [2]; 125 g ai/ha) was 0 and the “Plant response rating, Corn” value (corn [2]; 500 g ai/ha) was 10. The “Corn plant response rating” value (corn [2]; 125 g ai/ha) was 10, the “Corn plant response rating” value (corn [2]; 500 g ai/ha) was 20 and the “Ducksalad plant response rating” value (ducksalad) was 0. For the same compound, the “Plant response rating, Cocklebur” value (cocklebur; [9]) was 0, the “Plant response rating, Cocklebur” value (cocklebur; [10]) was 0 and the “Plant response rating, Cocklebur” value (cocklebur; [11]) was 0. For the same compound, the “Cocklebur plant response rating” value (cocklebur; [12]) was 0, the “Plant response rating, Corn” value (corn [3]; [9]) was 0 and the “Plant response rating, Corn” value (corn [3]; [10]) was 0. The “Plant response rating, Corn” value (corn [3]; [11]) was 0, the “Corn plant response rating” value (corn [3]; [13]) was 0 and the “Plant response rating, Foxtail, Giant” value (giant foxtail; [9]) was 0. For the same compound, the “Plant response rating, Foxtail, Giant” value (giant foxtail; [10]) was 10, the “Plant response rating, Foxtail, Giant” value (giant foxtail; [11]) was 80 and the “Foxtail, Giant plant response rating” value (giant foxtail; [13]) was 100. The “Plant response rating, Kochia” value (kochia; [9]) was 80, the “Plant response rating, Kochia” value (kochia; [10]) was 85 and the “Plant response rating, Kochia” value (kochia; [11]) was 90. For the same compound, the “Kochia plant response rating” value (kochia; [13]) was 90, the “Plant response rating, Velvetleaf” value (velvetleaf [4]; [9]) was 10 and the “Plant response rating, Velvetleaf” value (velvetleaf [4]; [10]) was 70. For the same compound, the “Plant response rating, Velvetleaf” value (velvetleaf [4]; [11]) was 85 and the “Velvetleaf plant response rating” value (velvetleaf [4]; [13]) was 85.

For CCc1nc(C(C)(C)C)sc1C(=O)Nc1cccc(C(=O)N(CC)CC)c1 [Compound 205], the “Velvetleaf plant response rating” value (velvetleaf [1]; [5]) was 20, the “Plant response rating, Velvetleaf” value (velvetleaf [1]; [6]) was 30 and the “Velvetleaf plant response rating” value (velvetleaf [1]; [7]) was 100. The “Velvetleaf plant response rating” value (velvetleaf [1]; [8]) was 70, the “Corn plant response rating (0 to 100 scale)” value (corn [2]; 125 g ai/ha) was 10 and the “Plant response rating, Corn” value (corn [2]; 500 g ai/ha) was 40. The “Corn plant response rating” value (corn [2]; 125 g ai/ha) was 20, the “Corn plant response rating” value (corn [2]; 500 g ai/ha) was 20 and the “Ducksalad plant response rating” value (ducksalad) was 50. For the same compound, the “Plant response rating, Cocklebur” value (cocklebur; [9]) was 0, the “Plant response rating, Cocklebur” value (cocklebur; [10]) was 0 and the “Plant response rating, Cocklebur” value (cocklebur; [11]) was 0. For the same compound, the “Cocklebur plant response rating” value (cocklebur; [12]) was 0, the “Plant response rating, Corn” value (corn [3]; [9]) was 0 and the “Plant response rating, Corn” value (corn [3]; [10]) was 0. For the same compound, the “Plant response rating, Corn” value (corn [3]; [11]) was 0, the “Corn plant response rating” value (corn [3]; [13]) was 40 and the “Plant response rating, Foxtail, Giant” value (giant foxtail; [9]) was 0. The “Plant response rating, Foxtail, Giant” value (giant foxtail; [10]) was 10, the “Plant response rating, Foxtail, Giant” value (giant foxtail; [11]) was 80 and the “Foxtail, Giant plant response rating” value (giant foxtail; [13]) was 95. For the same compound, the “Plant response rating, Kochia” value (kochia; [9]) was 90, the “Plant response rating, Kochia” value (kochia; [10]) was 90 and the “Plant response rating, Kochia” value (kochia; [11]) was 90. For the same compound, the “Kochia plant response rating” value (kochia; [13]) was 90, the “Plant response rating, Velvetleaf” value (velvetleaf [4]; [9]) was 10 and the “Plant response rating, Velvetleaf” value (velvetleaf [4]; [10]) was 40. For the same compound, the “Plant response rating, Velvetleaf” value (velvetleaf [4]; [11]) was 60 and the “Velvetleaf plant response rating” value (velvetleaf [4]; [13]) was 100.

In the case of CCc1nc(C(C)(C)C)sc1C(=O)Nc1cccc(C(=O)NCC2CC2)c1 [Compound 212], the “Velvetleaf plant response rating” value (velvetleaf [1]; [5]) is reported as 35, the “Plant response rating, Velvetleaf” value (velvetleaf [1]; [6]) is reported as 35 and the “Velvetleaf plant response rating” value (velvetleaf [1]; [7]) is reported as 100. For the same compound, the “Velvetleaf plant response rating” value (velvetleaf [1]; [8]) was 65, the “Corn plant response rating (0 to 100 scale)” value (corn [2]; 125 g ai/ha) was 10 and the “Plant response rating, Corn” value (corn [2]; 500 g ai/ha) was 30. The “Corn plant response rating” value (corn [2]; 125 g ai/ha) was 20, the “Corn plant response rating” value (corn [2]; 500 g ai/ha) was 40 and the “Ducksalad plant response rating” value (ducksalad) was 80. For the same compound, the “Plant response rating, Cocklebur” value (cocklebur; [9]) was 0, the “Plant response rating, Cocklebur” value (cocklebur; [10]) was 0 and the “Plant response rating, Cocklebur” value (cocklebur; [11]) was 5. The “Cocklebur plant response rating” value (cocklebur; Postemergence, scale 0 to 100) was 70, the “Plant response rating, Cocklebur” value (cocklebur; [14]) was 70 and the “Cocklebur plant response rating” value (cocklebur; [12]) was 95. The “Plant response rating, Cocklebur” value (cocklebur; [15]) was 60, the “Plant response rating, Cocklebur” value (cocklebur; [16]) was 10 and the “Plant response rating, Corn” value (corn [3]; [9]) was 0. The “Plant response rating, Corn” value (corn [3]; [10]) was 0, the “Plant response rating, Corn” value (corn [3]; [11]) was 30 and the “Plant response rating, Corn” value (corn [3]; [17]) was 40. For the same compound, the “Corn plant response rating” value (corn [3]; [18]) was 40, the “Plant response rating, Corn” value (corn [3]; [14]) was 40 and the “Plant response rating, Corn” value (corn [3]; [15]) was 35. For the same compound, the “Plant response rating, Corn” value (corn [3]; [16]) was 15, the “Plant response rating, Foxtail, Giant” value (giant foxtail; [9]) was 0 and the “Plant response rating, Foxtail, Giant” value (giant foxtail; [10]) was 20. For the same compound, the “Plant response rating, Foxtail, Giant” value (giant foxtail; [11]) was 20, the “Plant response rating, Foxtail, Giant” value (giant foxtail; [17]) was 95 and the “Foxtail, Giant plant response rating” value (giant foxtail; [18]) was 60. The “Plant response rating, Foxtail, Giant” value (giant foxtail; [14]) was 50, the “Plant response rating, Foxtail, Giant” value (giant foxtail; [15]) was 20 and the “Plant response rating, Foxtail, Giant” value (giant foxtail; [16]) was 10. The “Plant response rating, Kochia” value (kochia; [9]) was 85, the “Plant response rating, Kochia” value (kochia; [10]) was 85 and the “Plant response rating, Kochia” value (kochia; [11]) was 90. For the same compound, the “Plant response rating, Kochia” value (kochia; [17]) was 95, the “Kochia plant response rating” value (kochia; [18]) was 90 and the “Plant response rating, Kochia” value (kochia; [14]) was 90. The “Plant response rating, Kochia” value (kochia; [15]) was 80, the “Plant response rating, Kochia” value (kochia; [16]) was 80 and the “Plant response rating, Velvetleaf” value (velvetleaf [4]; [9]) was 20. For the same compound, the “Plant response rating, Velvetleaf” value (velvetleaf [4]; [10]) was 100, the “Plant response rating, Velvetleaf” value (velvetleaf [4]; [11]) was 100 and the “Plant response rating, Velvetleaf” value (velvetleaf [4]; [17]) was 100. For the same compound, the “Velvetleaf plant response rating” value (velvetleaf [4]; [18]) was 70, the “Plant response rating, Velvetleaf” value (velvetleaf [4]; [14]) was 50 and the “Plant response rating, Velvetleaf” value (velvetleaf [4]; [16]) was 0.
